We go through twelve compounds from patent EP2758383B1, “AROMATIC AMIDOTHIAZOLES, COSMETIC AND DERMATOLOGICAL PREPARATIONS CONTAINING THEM, AND THEIR USE FOR THE TREATMENT AND PROPHYLAXIS OF UNWANTED PIGMENTATION OF THE SKIN” (priority 2011, dated 2013).

SMILES strings stand for the structures.

For one experiment, the target named is T1, humane Tyrosinase (Homo sapiens, UniProt P14679).
T1 sequence (P14679 19-529): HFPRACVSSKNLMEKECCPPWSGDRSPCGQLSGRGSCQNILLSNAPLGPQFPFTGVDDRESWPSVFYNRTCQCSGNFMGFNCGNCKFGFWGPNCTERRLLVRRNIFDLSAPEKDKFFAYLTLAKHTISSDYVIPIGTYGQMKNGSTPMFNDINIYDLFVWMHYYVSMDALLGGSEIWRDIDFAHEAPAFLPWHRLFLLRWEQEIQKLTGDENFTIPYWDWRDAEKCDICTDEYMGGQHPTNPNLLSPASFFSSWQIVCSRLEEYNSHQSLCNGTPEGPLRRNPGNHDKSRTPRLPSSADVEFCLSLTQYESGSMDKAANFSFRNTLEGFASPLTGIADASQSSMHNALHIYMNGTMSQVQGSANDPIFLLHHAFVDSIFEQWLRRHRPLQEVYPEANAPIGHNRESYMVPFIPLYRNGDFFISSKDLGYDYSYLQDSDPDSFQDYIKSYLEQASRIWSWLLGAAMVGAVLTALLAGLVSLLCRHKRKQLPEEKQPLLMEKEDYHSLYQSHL
Put plainly: Enzyme test: conversion of L-DOPA to L-dopaquinone by human tyrosinase, MBTH detection, absorption at 490 nm. Particulars: Konzentration 10 µg/mL; substrate L-DOPA; read-out: Inhibition (% der Kontrolle). The format is biochemical.
Source text: Die Wirksamkeit der Thiazole wurde mit einem Enzymtest belegt, in der Umsatz von L-DOPA zu L-Dopachinon durch eine humane Tyrosinase gemessen wurde.
One may read the inhibition as the relative decrease from the control value, in per cent. Regarding `CC(C)(C)c1ccc(C(=O)Nc2nc(-c3ccc(O)cc3O)cs2)cc1` [4-(tert-butyl)-N-(4-(2,4-dihydroxyphenyl)thiazol-2-yl)benzamid], the inhibition at 10 µg/mL was determined as 27%.

As for `CC(=O)c1ccc(C(=O)Nc2nc(-c3ccc(O)cc3O)cs2)cc1` [4-acetyl-N-(4-(2,4-dihydroxyphenyl)thiazol-2-yl)benzamid], the inhibition at 10 µg/mL is 92%.

Regarding `N#Cc1ccc(C(=O)Nc2nc(-c3ccc(O)cc3O)cs2)cc1` [4-cyano-N-(4-(2,4-dihydroxyphenyl)thiazol-2-yl)benzamid], the inhibition at 10 µg/mL came to 96%.

For `O=C(Nc1nc(-c2ccc(O)cc2O)cs1)c1ccc(CO)cc1` [N-(4-(2,4-dihydroxyphenyl)thiazol-2-yl)-4-(hydroxymethyl)benzamid], the inhibition at 10 µg/mL was 99%.

For `O=C(Nc1nc(-c2ccc(O)cc2O)cs1)c1ccc(CO)nc1` [N-(4-(2,4-dihydroxyphenyl)thiazol-2-yl)-6-(hydroxymethyl)nicotinamid], the inhibition at 10 µg/mL amounted to 98%.

Turning to `O=C(Nc1nc(-c2ccc(O)cc2O)cs1)c1ccccc1` [N-(4-(2,4-dihydroxyphenyl)thiazol-2-yl)benzamid], the inhibition at 10 µg/mL came to 98%.

For the compound `O=C(Nc1nc(-c2ccc(O)cc2O)cs1)c1ccc2c(c1)OCO2` [N-(4-(2,4-dihydroxyphenyl)thiazol-2-yl)benzo[d][1,3]dioxole-5-carboxamide], the inhibition at 10 µg/mL stood at 92%.

For the compound `O=C(Nc1nc(-c2ccc(O)cc2O)cs1)c1ccccn1` [N-(4-(2,4-dihydroxyphenyl)thiazol-2-yl)picolinamid], the inhibition at 10 µg/mL turned out to be 82%.

On to `c1ccc(Nc2nc(-c3ccncc3)cs2)nc1` [N-(pyridin-2-yl)-4-(pyridin-4-yl)thiazol-2-amin, reference compound], for which the inhibition at 10 µg/mL was 16%.

With `C=CCN(C1=NC(C)(C)C(=C)S1)c1ccc(C)cc1C` [N-allyl-N-(2,4-dimethylphenyl)-4,4-dimethyl-5-methylene-4,5-dihydrothiazol-2-amin, reference compound], the inhibition at 10 µg/mL stood at 13%.

As for `CN(c1ccccc1)c1nc(-c2ccncc2)cs1` [N-methyl-N-phenyl-4-(pyridin-4-yl)thiazol-2-amin, reference compound], the inhibition at 10 µg/mL worked out at 13%.

The same experiment, now with this note: read-out: Inhibition (% der Kontrolle).
Turning to `CC(C)(O)c1ccc(C(=O)Nc2nc(-c3ccc(O)cc3O)cs2)cc1` [N-(4-(2,4-dihydroxyphenyl)thiazol-2-yl)-4-(2-hydroxypropan-2-yl)benzamid], the inhibition at 10 µg/mL was 96%.
